{"source": "patent US7041647B2", "about": "“Synthetic peptide having an ionophoric and antimicrobial activity” (Corporacion Para Investigaciones Biologicas, priority 2003, dated 2006)", "key": {"[1]": {"system": "inner membrane of rat liver mitochondria", "experiment": "Mitochondrial swelling in isotonic media (ionophoric activity)", "type": "biochemical", "conditions": "pH 7.4", "experimental": "FIG. 1 Ionophoric activity of P1 in the inner membrane of rat liver mitochondria. The mitochondria at a concentration of 0.5 mg/ml of protein were incubated in the media 125 mM KNO3, 5 mM HEPES-tris, pH 7.4 (Panel A) and 125 mM NH4NO3, 5 mM HEPES-tris, pH 7.4 (Panel B), both media were supplemented with 2.5 μM rotenone and 1 μM oligomycin (RO), added just after the mitochondria. The peptide P1 was added at the following final concentrations: 1.8 μM of P1 (curves a); 0.36 μM of P1 (curves b); 0.18 μM of P1 (curves c); 0.18 μM of P1 plus 2.5 mM of succinate (curves d); 0.12 μM of valinomycin (curve e), and 2 μM of FCCP, (curve f). In Panel C, the permeability of the inner mitochondrial membrane induced by the peptide P1 was evaluated for the following cations: H^+, K^+, Na^+, and Tris^+. […]\nThe mitochondria were isolated and prepared as described above. […] The mitochondrial swelling was spectrophotometrically monitored at 540 nm (Turner Spectrophotometer, model SP-850, USA, modified with a magnetic mini-stirrer). The curves were recorded in a graphical recorder (Linseis model L250E, USA), scanned and then processed in the program Adobe Photoshop V5.0. […]"}, "[2]": {"system": "Escherichia coli (ATCC 25922)", "conditions": "ATCC 25922, 2 h, 7.1 μM"}, "[3]": {"system": "Bacteroides fragilis (ATCC 25285)", "conditions": "ATCC 25285, 2 h, 7.1 μM"}, "[4]": {"experiment": "Solubility in aqueous solutions", "type": "physicochemical", "source_text": "The peptides were synthesized by the method of solid phase synthesis (Merrifield B. 1963. Solid Phase Peptide Synthesis, Journal American Chemical Society. 85: 2149–2154; and Houghten R. A. 1985. General methods for the rapid solid phase synthesis of large numbers of peptides: specificity of antigen antibody interaction at the level of individual amino acids. Proc. Natl. Acad. Sci. USA. 82: 5131–5135.) under the methods of good manufacture practices (GMP). A resin p-methyl benzidrylamine (MBHA) (0.7 meq/g), t-boc amino acids (Bachem, USA) and the process of high-low cleavage were used in the synthesis. (Andreu D, Merrifield RB, Steiner H, Boman HG. 1983. Solid-phase synthesis of Cecropin A and Related Peptides. Proc. Natl. Acad. Sci USA 80: 6475–6479.). Once synthesized, the peptides were extracted with 10% acetic acid in water. The peptides were purified by high pressure liquid chromatography (HPLC), in a reverse phase column, and they were analyzed by means of mass spectrometry (Maldi-Tof). The peptides were lyophilized and kept in powder at 4° C. until its use."}, "human red blood cells": {"system": "human red blood cells", "experiment": "Hemolytic activity in human erythrocytes", "type": "cell-based", "conditions": "for Percentage of hemolysis, X ± SD: hematocryte 0.5%, 1 h room temperature", "experimental": "FIG. 5 Effect of P1 in human red blood cells; Human red blood cells were resuspended to a hematocryte of 0.5% in the isotonic solutions indicated in materials and methods. The peptide P1 was added at different concentrations to the cellular suspensions and incubated for 1 hour at room temperature. The supernatants were obtained by centrifugation of the suspensions at 10000 rpm for 5 min at 4° C. (International Equipment Company IEC, Centra MP4R; rotor 851), the absorbance of the supernatants was registered at 415 nm with a spectrophotometer (BIORAD). The results were expressed as percentage of hemolysis relative to the maximum hemolysis (erythrocytes hemolysed in 0.01% Tween-20).\nFIG. 6 The hemolysis caused by P1 in the erythrocytes decreases with an increase in the hematocryte; human red blood cells were resuspended at different hematocrytes: 0.5%, 2.5% and 10% in 150 mM NaCl, 5 mM KCl, 5 mM Glucose, 10 mM HEPES-tris, pH 7.4. Peptide P1 was added at different concentrations in the cellular suspension and incubated during 1 h at room temperature. The supernatants were obtained by centrifugation at 10000 rpm for 5 min at 4° C. and the absorbance at 415 nm was determined with a BIORAD spectrophotometer. The results were expressed as percentage of hemolysis relative to the maximum hemolysis (erythrocytes lysed in 0.01% Tween-20).\nThe hemolytic activity of peptide P1 was determined in heparinized human red blood cells from a volunteer (final concentration of heparin 20.4 U/ml), and washed three times in 150 mM NaCl, 9 mM Na2PO4, pH 7.3, at room temperature. The red blood cells were resuspended to an hematocryte of 0.5% in isotonic solutions 150 mM NaCl, 5 mM KCl, 5 mM Glucose, 10 mM HEPES-tris, pH 7.4; 155 mM KCl, 5 mM Glucose, 10 mM HEPES-tris, pH 7.4; 300 mM saccharose, 5 mM KCl, 5 mM Glucose, 10 mM HEPES-tris, pH 7.4; 150 mM polyethyleneglycol-1500 (PEG-1500), 5 mM KCl, 5 mM Glucose, 10 mM HEPES-tris, pH 7.4. […] The supernatants were recovered by centrifugation of the cellular suspension at 10000 rpm for 5 min at 4° C. and the absorbance at 415 nm was determined in a BIORAD spectrophotometer. The averages and standard deviations were calculated and the data were introduced to the program SigmaPlot V4.0 in order to generate the corresponding graphs (FIGS. 3 and 4)."}, "[5]": {"system": "Clostridium perfringens (ATCC 13124)", "conditions": "ATCC 13124, 2 h, 7.1 μM"}, "[6]": {"system": "Streptococcus pneumoniae (ATCC 49619)", "conditions": "ATCC 49619, 2 h, 7.1 μM"}, "[7]": {"system": "Staphylococcus aureus (ATCC 25923)", "conditions": "ATCC 25923, 2 h, 7.1 μM"}}, "note": "No end group written: not given here.", "data": [{"compound": "N#CC(C#N)=NNc1ccc(OC(F)(F)F)cc1", "note": "[FCCP, carbonyl-cyanide-p-trifluoromethoxy phenylhydrazone]", "values": [{"measurement": "Speed of mitochondrial swelling (slope)", "setting": "[1]; 2 μM FCCP, medium 125 mM NH4NO3, 5 mM HEPES-tris, FIG. 1 Panel B curve f", "value": 3.5}]}, {"compound": "CC(C)[C@@H]1NC(=O)[C@H](C)OC(=O)[C@@H](C(C)C)NC(=O)[C@@H](C(C)C)OC(=O)[C@H](C(C)C)NC(=O)[C@H](C)OC(=O)[C@@H](C(C)C)NC(=O)[C@@H](C(C)C)OC(=O)[C@H](C(C)C)NC(=O)[C@H](C)OC(=O)[C@@H](C(C)C)NC(=O)[C@@H](C(C)C)OC1=O", "note": "[valinomycin]", "values": [{"measurement": "Rate of mitochondrial swelling (slope)", "setting": "[1]; 0.12 μM valinomycin, medium 125 mM KNO3, 5 mM HEPES-tris, FIG. 1 Panel A curve e", "value": 1.4}]}, {"compound": "VAPIAKYLATALAKWALKQGFAKLKS-NH2 (C-terminus assumed) [P1]", "values": [{"measurement": "% of growth inhibition", "setting": "[2]", "value": 100, "unit": "%"}, {"measurement": "% of growth inhibition", "setting": "[3]", "value": 100, "unit": "%"}, {"measurement": "Solubility in aqueous solutions", "setting": "[4]", "value": "highly soluble"}, {"measurement": "Percentage of hemolysis, X ± SD", "setting": "human red blood cells; 0.36 μM P1, isotonic medium KCl 150 mM", "value": "17.25 ± 1.05", "unit": "%"}, {"measurement": "Percentage of hemolysis, X ± SD", "setting": "human red blood cells; 0.36 μM P1, isotonic medium NaCl 150 mM", "value": "3.75 ± 0.05", "unit": "%"}, {"measurement": "Percentage of hemolysis, X ± SD", "setting": "human red blood cells; 0.36 μM P1, isotonic medium PEG-1500 150 mM", "value": "0.25 ± 0.07", "unit": "%"}, {"measurement": "Percentage of hemolysis, X ± SD", "setting": "human red blood cells; 0.36 μM P1, isotonic medium Saccharose 150 mM", "value": "57.5 ± 0.73", "unit": "%"}, {"measurement": "Permeability order of hemolytic activity by isotonic medium", "setting": "human red blood cells; 0.36 μM peptide, order disappears at 3.6 μM", "value": "saccharose>KCl>NaCl"}, {"measurement": "Percentage of hemolysis, X ± SD", "setting": "human red blood cells; 3.6 μM P1, isotonic medium KCl 150 mM", "value": "64.25 ± 1.23", "unit": "%"}, {"measurement": "Percentage of hemolysis, X ± SD", "setting": "human red blood cells; 3.6 μM P1, isotonic medium NaCl 150 mM", "value": "59.25 ± 1.15", "unit": "%"}, {"measurement": "Percentage of hemolysis, X ± SD", "setting": "human red blood cells; 3.6 μM P1, isotonic medium PEG-1500 150 mM", "value": "2.75 ± 0.3", "unit": "%"}, {"measurement": "Percentage of hemolysis, X ± SD", "setting": "human red blood cells; 3.6 μM P1, isotonic medium Saccharose 150 mM", "value": "75.5 ± 10.38", "unit": "%"}, {"measurement": "Hemolytic activity with increased hematocryte", "setting": "human red blood cells; hematocryte increased at 10%, NaCl medium", "value": "decreases dramatically"}, {"measurement": "Hemolytic activity in a physiological solution", "setting": "human red blood cells; hematocryte is high", "value": "insignificant"}, {"measurement": "Hemolytic activity (in words)", "setting": "human red blood cells; isotonic medium PEG-1500", "value": "does not show hemolytic activity"}, {"measurement": "% of growth inhibition", "setting": "[5]", "value": 100, "unit": "%"}, {"measurement": "% of growth inhibition", "setting": "[6]", "value": 100, "unit": "%"}, {"measurement": "% of growth inhibition", "setting": "[7]", "value": 100, "unit": "%"}]}]}
